Test results: patent US10189791B2, “Pyridyl analogs of 1-(2-cyano-3,12-dioxooleana-1,9(11)dien-28-oyl) imidazole” (Trustees of Dartmouth College, priority 2014, dated 2019)
Read-outs that look alike come from different tables or passages of the source.

What was measured:
[1] = tested on: U937 leukemia cell line; test: U937 monocytic differentiation assay (CD11b surface marker, flow cytometry); format: cell-based; conditions: for activity to induce differentiation of U937 cells (in words): 4 days
Protocol: CDDO-Im 1 is a potent inducer of differentiation in U937 cells (Place, et al. (2003) Clin. Cancer Res. 9:2798-2806). Therefore, the activity of the CDDO-Im analogs was evaluated using the U937 leukemia cell line. CD11b (also known as Mac-1α or CR3 complement receptor) was used as a surface marker of monocytic differentiation, and its expression was measured by flow cytometry after 4 days of treatment with CDDO-Phenyl-Im 2, CDDO-3P-Im 3, CDDO-2P-Im 4, CDDO-4P-Im 5, CDDO-Im 1 (as positive control) or vehicle (DMSO). […] Indeed, the highest level of differentiation was obtained using 100 nM of CDDO-2P-Im (approximately a 4-fold induction of CD11b).

[2] = tested on: RA W264.7 macrophage-like cells; test: Inhibition of IFNγ-stimulated nitric oxide release (Griess reaction); format: cell-based; conditions: 10 ng/ml IFNγ, 24 hour exposure, read-out: IC50 (nM) Mean ± SE, NO production
Protocol: Because oxidative and inflammatory stress contribute to carcinogenesis (Albini & Sporn (2007) Nature Rev. Cancer 7:139-147), it was determined whether the pyridine analogues could block de novo synthesis of inducible nitric oxide synthase (iNOS), a critical enzyme involved in the inflammatory response (Kroncke, et al. (1998) Clin. Exp. Immunol. 113:147-156; Zamora, et al. (2000) Mol. Med. 6:347-373). Nitric oxide release was determined in RA W264.7 macrophage-like cells, after stimulation with 10 ng/ml interferon-γ (IFNγ) and a 24 hour-exposure to each compound at 0.625, 1.3, 2.5, 5, 10 and 20 nM. NO release was measured by Griess reaction and compared to CDDO-Im, which is a potent suppressor of iNOS (Place, et al. (2003) Clin. Cancer Res. […]:2798-2806).

[3] = Stability in human plasma at 37° C. (LC-MS); format: in vitro ADME; conditions: for percent of starting material remaining in plasma: after a 1-hour incubation; for stability in human plasma (in words): up to 6 hours
Protocol: Since CDDO-Im is not stable in human plasma, the stability of the CDDO-Im analogs was determined. Compounds were incubated in human plasma at 37° C. for up to 6 hours. The compounds were extracted with acetonitrile at six different time points (0, 0.5, 1, 2, 4 and 6 hours), centrifuged, and the percent of starting material remaining in the supernatant was measured by liquid chromatography-mass spectrometry (LC-MS). […] The concentrations then decreased gradually over 6 hours. […] Unexpectedly, the CDDO-Im analogs are metabolized differently from CCDO-Im, as no traces of CDDO were detected with any of the other compounds at any time point. Instead, an oxidized derivative was detected on the chromatogram, in the form of an adduct on the molecule of +16 in MW (N-oxide).

[4] = Tissue distribution after single gavage in C57BL/6 mice (LC-MS); format: in vivo; conditions: for Compound Concentration Mean ± SE, Kidney / Compound Concentration Mean ± SE, Liver / Compound Concentration Mean ± SE, Lungs / Compound Concentration Mean ± SE, Pancreas / Compound Concentration Mean ± SE, Plasma / Compound Concentration Mean ± SE, Whole Blood: six hours after single gavage with 1 μmole; for bioavailability / drug levels in organs (in words): compared with CDDO-Im 1
Protocol: To determine concentrations of the CDDO-Im analogs in various organs, an in vivo evaluation was conducted in C57BL/6 mice. Six hours after a single gavage with 1 μmole of compound, the mice were sacrificed and the tissues were collected.

[5] = tested on: HO-1; test: Induction of HO-1 mRNA in mouse liver, kidney and lung (real-time PCR); format: in vivo, mice; conditions: for HO-1 induction (in words): kidney; for HO-1 level relative to CDDO-Im / HO-1 mRNA fold induction compared to the vehicle control: liver; for HO-1 mRNA fold induction compared to the vehicle control: six hours after gavage with 1 μmole
Text: (§1) FIG. 2A and FIG. 2B show the induction of cytoprotective enzyme expression in mouse liver, kidney and lung. CB57BL/6 mice were gavaged with 1 μmole of each triterpenoid. Six hours later, organs were harvested, RNA was extracted, and mRNA levels for HO-1 (FIG. 2A) and NQO1 (FIG. 2B) were quantified by real-time PCR analysis. Results are presented as the fold induction for each compound compared to the vehicle (DMSO) control. Data are presented as mean±SE of six mice per group.
Synthetic triterpenoids such as CDDO-Im strongly activate the Nrf2/ARE pathway; Nrf2 is a transcription factor that regulates numerous cytoprotective and anti-inflammatory genes (Liby, et al. (2005) Cancer Res. 65:4789-98; Yates, et al. (2007) Mol. Cancer Therapeut. 6:154-62). Therefore, the ability of the new pyridine compounds to induce transcription of the Nrf2 target genes HO-1 and NQ01 in vivo was assessed. […] In the liver, CDDO-3P-Im and CDDO-2P-Im induced high levels of HO-1, which were about 3 times more elevated than with CDDO-Im (13.4- and 15.2-fold, respectively vs. 4.9-fold for CDDO-Im). […] The results obtained in lungs were, on the other hand, unexpected.

[6] = tested on: NQO1; test: Induction of NQO1 mRNA in mouse liver, kidney and lung (real-time PCR); format: in vivo, mice
Text: as §1
Because HO-1 is regulated by transcription factors in addition to Nrf2 (Alam, et al. (1999) J. Biol. Chem. 274:26071-8; Kensler, et al. (2007) Ann. Rev. Pharmacol. Toxicol. 47:89-116), induction of the prototypical Nrf2 target gene NQO1 was also examined.

[7] = tested on: U937 cells; test: Apoptosis in U937 cells (annexin V staining); format: cell-based; conditions: U937 cells treated for 48 hours
[8] = 30 nM, compared with CDDO-Im and CDDO-3P-Im
[9] = six hours after gavage with 1 μmole
[10] = six hours after gavage with 1 μmole, read-out: concentration in the pancreas
[11] = 30 nM, 4 days of treatment, U937 cells

SMILES | activity to induce differentiation of U937 cells (in words) [1, 8] | activity to induce differentiation of U937 cells (in words) ([1]; 100 nM) | IC50 [2] | percent of starting material remaining in plasma ([3]; 37° C.) | stability in human plasma (in words) ([3]; 37° C.) | Compound Concentration Mean ± SE, Kidney [4] | Compound Concentration Mean ± SE, Liver [4] | Compound Concentration Mean ± SE, Lungs [4] | Compound Concentration Mean ± SE, Pancreas [4] | Compound Concentration Mean ± SE, Plasma [4] | Compound Concentration Mean ± SE, Whole Blood [4] | HO-1 induction (in words) [5] | bioavailability / drug levels in organs (in words) [4] | concentration in the liver [4, 9] | concentration at 6 h [4, 10] | drug levels in the lungs [4, 9] | HO-1 level relative to CDDO-Im ([5]; six hours after gavage) | HO-1 mRNA fold induction compared to the vehicle control [5] | induction of CD11b expression compared to the DMSO-treated cells [1, 11] | cell death in the differentiation assay ([1]; 100 nM) | also measured
CC1(C)CCC2(C(=O)n3cnc(-c4ccncc4)c3)CCC3(C)C(C(=O)C=C4C5(C)C=C(C#N)C(=O)C(C)(C)C5CCC43C)C2C1 (stereo not drawn) [CDDO-4P-Im 5] | less active | enhanced the activity | 9 ± 0.6 nM | 42% | more stable than CDDO-Im | 0.35 ± 0.06 µmol/kg | 2.8 ± 0.47 µmol/kg | 0.17 ± 0.05 µmol/kg | 0.30 ± 0.04 µmol/kg | 0.03 ± 0.01 µmol/kg | 0.04 ± 0.1 µmol/kg | less potent than CDDO-Im | – | – | – | – | – | – | – | – | HO-1 transcript level relative to CDDO-Im or any of the other compounds ([5]; lungs, six hours after gavage): about 3 times
CC1(C)CCC2(C(=O)n3cnc(-c4ccccc4)c3)CCC3(C)C(C(=O)C=C4C5(C)C=C(C#N)C(=O)C(C)(C)C5CCC43C)C2C1 (stereo not drawn) [CDDO-Phenyl-Im 2] | less active | – | 14.7 nM | – | more stable than CDDO-Im | 5.79 ± 0.25 µmol/kg | 12.2 ± 1.27 µmol/kg | 1.28 ± 0.17 µmol/kg | 1.97 ± 0.19 µmol/kg | 0.12 ± 0.01 µmol/kg | 0.35 ± 0.03 µmol/kg | markedly less potent | better than for CDDO-Im 1 | 12000 to 15000 nM | 2000 nM | – | – | – | – | – | concentration in kidneys [4, 9]: 5800 nM; NQO1 mRNA induction (in words) ([6]; liver, compared with CDDO-Im): markedly less potent than CDDO-Im
CC1(C)CCC2(C(=O)n3cnc(-c4ccccn4)c3)CCC3(C)C(C(=O)C=C4C5(C)C=C(C#N)C(=O)C(C)(C)C5CCC43C)C2C1 (stereo not drawn) [CDDO-2P-Im 4] | less active | enhanced the activity | 5.8 ± 1.1 nM | more than 85% | the most stable analog | 3.70 ± 0.55 µmol/kg | 14.9 ± 2.58 µmol/kg | 2.63 ± 0.41 µmol/kg | 3.55 ± 0.39 µmol/kg | 0.52 ± 0.02 µmol/kg | 0.53 ± 0.02 µmol/kg | – | better than for CDDO-Im 1 | 12000 to 15000 nM | 3500 nM | greater than 2.5 μM | about 3 times | 15.2 fold | – | – | induction of CD11b ([1]; 100 nM, 4 days of treatment, U937 cells): ~4 fold; percent left in plasma ([3]; after 4 hours, 37° C.): more than 50%
CC1(C)CCC2(C(=O)n3ccnc3)CCC3(C)C(C(=O)C=C4C5(C)C=C(C#N)C(=O)C(C)(C)C5CCC43C)C2C1 (stereo not drawn) [CDDO-Im 1, 1-(2-cyano-3,12-dioxooleana-1,9(11)-dien-28-oyl) imidazole, reference compound] | – | – | – | – | rapidly metabolized | 0.24 ± 0.08 µmol/kg | 1.7 ± 0.32 µmol/kg | 0.19 ± 0.05 µmol/kg | 0.31 ± 0.09 µmol/kg | 0.06 ± 0.02 µmol/kg | 0.03 ± 0.01 µmol/kg | – | – | – | – | – | – | – | ~3 fold | induced cell death | annexin V staining, a marker of early apoptosis [7]: increased annexin V staining; IC50 ([2]; Mus musculus, RAW264.7): 2 nM; transformation product in human plasma (in words) ([3]; LC-MS, all time points): essentially converted to its parent molecule; percent of compound lost in human plasma ([3]; within 30 minutes, 37° C.): more than 88%; percent of compound lost in human plasma ([3]; within the next 5 hours (6 hour incubation), 37° C.): 98%; concentration at 6 h ([4]; C57BL/6, mouse, liver, oral, six hours after gavage with 1 μmole, read-out: concentration in the liver): 1700 nM; concentration at 6 h ([4]; C57BL/6, mouse, lung, oral, six hours after gavage with 1 μmole, read-out: drug levels in the lungs): 200 nM; concentration at 6 h ([4]; C57BL/6, mouse, pancreas, oral, six hours after gavage with 1 μmole, read-out: concentration in the pancreas): ~300 nM; rank of NQO1 mRNA induction (in words) ([6]; liver and kidney): the most potent compound
CC1(C)CCC2(C(=O)n3cnc(-c4cccnc4)c3)CCC3(C)C(C(=O)C=C4C5(C)C=C(C#N)C(=O)C(C)(C)C5CCC43C)C2C1 (stereo not drawn) [CDDO-3P-Im 3] | – | – | 4.3 nM | – | more stable than CDDO-Im | 1.47 ± 0.24 µmol/kg | 5.9 ± 0.57 µmol/kg | 2.49 ± 0.44 µmol/kg | 2.52 ± 0.24 µmol/kg | 0.15 ± 0.04 µmol/kg | 0.16 ± 0.02 µmol/kg | – | better than for CDDO-Im 1 | – | 2500 nM | greater than 2.5 μM | about 3 times | 13.4 fold | ~3 fold | induced cell death | annexin V staining, a marker of early apoptosis [7]: increased annexin V staining
